Consider 1 compound from patent US9771563B2, “Chemical approaches for generation of induced pluripotent stem cells” (The Scripps Research Institute, priority 2008, dated 2017).

Structures are written as SMILES.

One test concerns mES R1 cells. Nature of the test: Proliferation assay. The settings on record: 2 μM BayK, 1 μM BIX; 15, 24, 48 hours; vs DMSO. The class given is cell-based, mouse. The method, then: mES R1 cells were plated onto gelatin-coated 6-well plates at a density of 2×10^5 cells/well in complete mES cell media. Upon cell attachment, app. 12 hours, the cells were treated either with DMSO, 1 μM BIX, 2 μM BayK, and a combination of both, in triplicate. At 15, 24 and 48 hours, the cells were detached using trypsin, and counted using a hemocytometer. Trypan blue (Sigma-Aldrich, St. Louis, Mo.) was used for dead cell exclusion.

The test system of test [1] is mouse embryonic fibroblasts (129 or OG2 MEFs). Nature of the test: Screen for iPSC generation from MEFs transduced with Oct4/Klf4 (OK). The class given is cell-based. As for the experimental part: Unmodified MEFs derived from E13-14 embryos of the 129 mice were used for the initial screen. MEFs were plated on Matrigel at 3.5×10^4 cells/well of a 6-well plate and transduced with OK (retroviral vectors expressing Oct4 and Klf4) alone. Within 14-21 days, treated cells were assessed for the appearance of colonies that had the characteristic embryonic stem cell (ESC) colony morphology and were positive for the pluripotency marker alkaline phosphatase (ALP). Such OK-transduced cells generated only a few small non-compact colonies, which were weakly positive for ALP expression. These colonies initially appeared within 21 days after viral transduction and were difficult to expand. Therefore, such assay system offered a clean background for the identification of small molecules having desirable reprogramming inducing activity. Using this system, compounds from a library of around 2000 known small molecules (see Experimental Procedures below) were screened and were identified as hits when they induced the appearance of ESC colonies that were strongly positive for ALP within 14-21 days after treatment. This image-based method provided a more accurate assessment of reprogramming as compared to homogenous reporter-based assay. BIX appeared to have the strongest effect with reproducible induction of more than 1-2 compact ESC-like colonies with high ALP expression. We observed that when MEFs were treated with BIX after OK viral transduction, compact colonies with strong ALP expression could be readily detected within approximately 14-21 days. These cells were also positive for Nanog, Oct4 and SSEA-1 expression. […] However, the reprogramming efficiency in MEFs transduced with OK and treated with BIX was still low, about 2 colonies/3.5×10^4 cells, in comparison to the four factor-induced reprogramming of MEFs or the OK/BIX NPC reprogramming (Shi, Y. et al., Cell Stem Cell, 2:525-528 (2008)). Therefore, we conducted a second screen using a similar protocol, but where BIX was added to the basal media after OK viral transduction. This provided a more permissive platform to identify new small molecules that could further improve reprogramming efficiency. More importantly, this second screen could facilitate discovery of small molecules that impact reprogramming in a more specific manner, for example by acting on signal transduction pathways rather than on histone or DNA modifying enzymes. In this second screen, we again assayed the library of around 2000 known small molecules (see Experimental Procedures), and confirmed two compounds that were able to act in a synergistic manner with BIX to improve reprogramming based on the criteria of the screen. […] Therefore, RG108 was not pursued further for this study. Instead, we focused our phenotypic and functional characterization on another small molecule that was identified in the second screen, BayK, an L-calcium channel agonist. […] Therefore, BayK might play a more specific role in the reprogramming process. When 129 MEFs were transduced with empty retrovirus (negative control); no colonies observed. When 129 MEFs were transduced with OK without small molecules; few small flattened colonies with weak ALP expression present. […] When OK-transduced MEFs were treated with BIX in combination with BayK, a significant increase in the number of ALP^+ colonies that closely resemble the mESC morphology could be observed (˜7 colonies) as compared to OK-transduced MEFs treated with BIX alone (˜2 colonies).
Primary 12952/SvPasCrlf (primary screen) or ROSA26^+/−/OG2^+/− (secondary screen) MEFs were plated onto Matrigel (1:50; BD Biosciences, Bedford, Mass.) coated dishes at a density of 3.5×10^4 cells per well of a 6-well plate. Twenty-four hours later, these cells were transduced overnight with defined retroviruses at 37° C., 5% CO2. […] (all products were from Invitrogen, Carlsbad, Calif., except where mentioned). […]

The test system of test [2] is primary OG2 neural progenitor cells. Briefly: iPS cell induction from neural progenitor cells after retroviral transduction. The class given is cell-based, mouse. The method, then: The reporter neural progenitor cells were generated using a well established protocol by differentiating the Oct4-GiP mESCs grown in monolayer on gelatin in a chemically defined medium/CDM condition in the absence of serum and other growth factors/cytokines at low cell density for eight days, followed by neurophere formation and subsequent serial passaging in single cells in neural cell expansion media supplemented with 10 ng/ml of bFGF and EGF in monolayer for over six passages/24 days. The resulting neural progenitor cells were homogenous by cell morphology and neural marker expression, and were confirmed to be GFP negative and puromycin sensitive. Such neural progenitor cells plated in monolayer in conventional mESC growth media were transduced with combinations of four, three, or two of the four factors, followed by treating the transduced cells with individual small molecules from a small known drug collection in a typical 6-well format. The compound treatment and culture were continued for additional ten days before puromycin was added. The number of green and puro-resistant colonies was counted at day 14. In comparison to the only four-gene transduced neural cells as the positive control, compound conditions that generated more green colonies than the corresponding gene-only conditions were picked as primary hits. To further confirm these primary hit conditions, we chose to use a late passage of mouse CNS neural progenitor cells (Do, J. T. et al., Stem Cells 25, 1013-1020 (2007)) that were derived from fetal brain of OG2^+/−/ROSA26^+/− transgenic mice (which contain an Oct4-GFP reporter) and expanded in monolayer under the same neural CDM condition as the above with 10 ng/ml of bFGF and EGF. Such cells truly from a non-pluripotent tissue would be devoid of concerns of any contaminating ES cell in the above screening system, which is highly unlikely with all appropriate controls. Similar culture conditions and reprogramming assays were performed using the OG2 neural progenitor cells except that puromycin was not used and green colonies were picked out and characterized by staining of Nanog, SSEA1 and ALP.
mESC-derived or primary OG2 mouse neural progenitor cells were plated into Matrigel (1:50, BD Biosciences) coated 6-well plates at 3.5×10^4 cells/well in the neural progenitor cell expansion media. After one day these cells were transduced with retrovirus for overnight, and the medium was changed into the mESC growth media [DMEM, 5% FBS, 10% KSR, 1× non-essential amino acids (Gibco), 2 mM L-glutamine (Gibco), 0.1 mM β-mercaptoethanol (Gibco) and 10^3 unit/ml LIF (Chemicon)] with or without BIX01294 (0.5-1 μM). GFP-positive iPS cell colonies appeared after 9-14 days, and were picked out and expanded on MEF feeder cells with the mESC growth media.

Consider `COc1cc2nc(N3CCCN(C)CC3)nc(NC3CCN(Cc4ccccc4)CC3)c2cc1OC` [BIX01294], for which, in the test with mES R1 cells, the “proliferation of mES cells (cell number)” value is recorded as “does not increase the proliferation of mES cells”. In addition, the “reprogramming efficiency (GFP+ colonies)” value in test [1] (OG2 MEFs transduced with OK, FIG. 3) is given as 2.5±0.7 colonies per 3.5×10^4 cells. The “number of ALP+ colonies that closely resemble the mESC morphology” value in test [1] (OK-transduced 129 MEFs, 14-21 days) is given as “about 2 colonies”. Besides, the “appearance of GFP+ iPS cell colonies after transduction and treatment” value in test [2] (OG2 neural progenitor cells transduced with Oct4/Klf4 retroviruses) is 12 days. Further, in test [2] (Oct4/Klf4 viral transduction, BIX01294 treatment), the kinetics of reprogramming result is “didn't significantly shorten the kinetics of reprogramming”. Besides, the reprogramming efficiency result in test [2] (Oct4/Klf4 viral transduction, BIX01294 treatment (0.5-1 μM)) was “significantly improve the reprogramming efficiency to or higher than the level of using viral transduction of all four factors”. Moreover, the “generation of iPS cells in the absence of Oct4 expression” value in test [2] (viral transduction of Klf4, Sox2 and cMyc with simultaneous treatment) was “can also generate iPS cells”.
